The values that follow come from patent US9708316B2 (BRISTOL-MYERS SQUIBB COMPANY, priority 2014, dated 2017).

The target of one assay is T1, HIS-TGFβR1 T204D (Homo sapiens, UniProt P36897, T204D).
T1 sequence (P36897 34-503 T204D): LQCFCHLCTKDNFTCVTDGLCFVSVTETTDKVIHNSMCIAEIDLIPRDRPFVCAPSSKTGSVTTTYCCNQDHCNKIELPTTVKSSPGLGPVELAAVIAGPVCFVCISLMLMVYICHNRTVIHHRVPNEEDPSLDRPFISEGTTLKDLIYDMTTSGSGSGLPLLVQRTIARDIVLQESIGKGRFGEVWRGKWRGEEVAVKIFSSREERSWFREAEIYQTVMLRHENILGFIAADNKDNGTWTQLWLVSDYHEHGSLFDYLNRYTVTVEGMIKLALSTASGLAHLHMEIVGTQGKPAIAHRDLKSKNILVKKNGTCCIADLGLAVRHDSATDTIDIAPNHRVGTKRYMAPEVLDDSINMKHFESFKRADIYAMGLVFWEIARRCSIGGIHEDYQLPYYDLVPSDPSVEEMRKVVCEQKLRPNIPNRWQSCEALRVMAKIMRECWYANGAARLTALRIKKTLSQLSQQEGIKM
Briefly: HTRF probe-displacement assay, HIS-TGFβR1 T204D. It counts as binding.

In another assay the target is HIS-TGFβR2 WT (Homo sapiens, UniProt P37173). Put plainly: HTRF probe-displacement assay, HIS-TGFβR2 WT. It is filed as binding. In general terms: In TR-FRET formats the signal depends on donor and acceptor labels being close together.
HIS-TGFβR2 WT, sequence (P37173 23-567): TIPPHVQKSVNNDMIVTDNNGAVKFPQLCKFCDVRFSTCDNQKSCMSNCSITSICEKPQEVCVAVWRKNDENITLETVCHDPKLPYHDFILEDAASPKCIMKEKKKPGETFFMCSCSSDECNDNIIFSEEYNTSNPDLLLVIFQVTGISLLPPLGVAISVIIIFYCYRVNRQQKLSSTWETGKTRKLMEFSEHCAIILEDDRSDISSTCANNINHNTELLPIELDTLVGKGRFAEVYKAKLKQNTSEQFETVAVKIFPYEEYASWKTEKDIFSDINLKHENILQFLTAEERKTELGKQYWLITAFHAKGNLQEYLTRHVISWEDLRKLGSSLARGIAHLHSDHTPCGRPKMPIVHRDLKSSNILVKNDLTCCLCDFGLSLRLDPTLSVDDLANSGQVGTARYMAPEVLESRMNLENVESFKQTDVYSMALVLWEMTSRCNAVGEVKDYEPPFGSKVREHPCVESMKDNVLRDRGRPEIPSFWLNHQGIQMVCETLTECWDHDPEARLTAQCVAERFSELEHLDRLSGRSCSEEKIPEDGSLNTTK

In general, IC50 refers to the concentration that inhibits the measured activity by half.

Read-outs that look alike come from different tables or passages of the source. Where only a bound is given, the exact number is not on record here.

In the case of `O=C(CNCCO)Nc1cc(-c2[nH]c3cc(Cl)cnc3c2-c2ccc(F)cn2)ccn1` [Example 75, N-{4-[6-Chloro-3-(5-fluoropyridin-2-yl)-1H-pyrrolo[3,2-b]pyridin-2-yl]pyridin-2-yl}-2-[(2-hydroxyethyl)amino]acetamide], the IC50 was determined as 0.005 µM on HIS-TGFβR1 T204D (read-out: TGFβR1 (μM) IC50) and 1.03 µM at HIS-TGFβR2 WT.

With `CCN1CCN(CC(=O)Nc2cc(-c3[nH]c4cc(Cl)cnc4c3-c3ccc(OC)nc3)ccn2)CC1` [Example 291, N-(4-(6-chloro-3-(6-methoxypyridin-3-yl)-1H-pyrrolo[3,2-b]pyridin-2-yl)pyridin-2-yl)-2-(4-ethylpiperazin-1-yl)acetamide], the half-maximal inhibitory concentration (IC50) on HIS-TGFβR1 T204D (read-out: TGFβR1 (μM) IC50) was determined as 0.001 µM; at HIS-TGFβR2 WT, 1.66 µM.

Turning to `COc1ccc(-c2c(-c3ccnc(NC(C)=O)c3)[nH]c3cc(C(=O)C(F)(F)F)cnc23)nc1` [Example 296, N-(4-(3-(5-Methoxypyridin-2-yl)-6-(2,2,2-trifluoroacetyl)-1H-pyrrolo[3,2-b]pyridin-2-yl)pyridin-2-yl)acetamide], the IC50 at HIS-TGFβR1 T204D (read-out: TGFβR1 (μM) IC50) came out at 0.002 µM; at HIS-TGFβR2 WT, 7.78 µM.

Regarding `CC(=O)Nc1cc(-c2[nH]c3c(CO)ccnc3c2-c2cccc(C)n2)ccn1` [Example 279, N-(4-(7-(Hydroxymethyl)-3-(6-methylpyridin-2-yl)-1H-pyrrolo[3,2-b]pyridin-2-yl)pyridin-2-yl)acetamide], the IC50 on HIS-TGFβR1 T204D (read-out: TGFβR1 (μM) IC50) was determined as 0.006 µM; on HIS-TGFβR2 WT, 9.9 µM.

Consider `CC(=O)Nc1cc(-c2[nH]c3cccnc3c2-c2ccc(Cl)c(C)n2)ccn1` [Example 33, N-{4-[3-(5-Chloro-6-methylpyridin-2-yl)-1H-pyrrolo[3,2-b]pyridin-2-yl]pyridin-2-yl}acetamide], for which the IC50 at HIS-TGFβR1 T204D (read-out: TGFβR1 (μM) IC50) is 0.005 µM; on HIS-TGFβR2 WT, > 15 µM.

Take `CC(=O)Nc1cc(-c2[nH]c3c(C)ccnc3c2-c2csc(C)n2)ccn1` [Example 221, N-(4-(7-Methyl-3-(2-methylthiazol-4-yl)-1H-pyrrolo[3,2-b]pyridin-2-yl)pyridin-2-yl)acetamide]: the results for the IC50 at HIS-TGFβR1 T204D (read-out: TGFβR1 (μM) IC50) and at HIS-TGFβR2 WT were 0.0037 µM and 1.36 µM, respectively.

As to `CC(=O)Nc1cc(-c2[nH]c3cc(Cl)cnc3c2-c2cccc(C)n2)ccn1` [Example 66, N-{4-[6-Chloro-3-(6-methylpyridin-2-yl)-1H-pyrrolo[3,2-b]pyridin-2-yl]pyridin-2-yl}acetamide], the IC50 turned out to be 0.002 µM at HIS-TGFβR1 T204D and 3.72 µM on HIS-TGFβR2 WT.

Turning to `CC(=O)Nc1cc(-c2[nH]c3cc(Cl)cnc3c2-c2cccc(OC(C)C)n2)ccn1` [Example 255, N-(4-(6-Chloro-3-(6-isopropoxypyridin-2-yl)-1H-pyrrolo[3,2-b]pyridin-2-yl)pyridin-2-yl)acetamide], the IC50 on HIS-TGFβR1 T204D (read-out: TGFβR1 (μM) IC50) is 0.433 µM; at HIS-TGFβR2 WT, > 15 µM.

Take `CC(=O)Nc1cc(-c2[nH]c3cc(C)cnc3c2-c2nc(C)cs2)ccn1` [Example 223, N-(4-(6-Methyl-3-(4-methylthiazol-2-yl)-1H-pyrrolo[3,2-b]pyridin-2-yl)pyridin-2-yl)acetamide]: the IC50 is 0.0008 µM at HIS-TGFβR1 T204D (read-out: TGFβR1 (μM) IC50) and 0.043 µM on HIS-TGFβR2 WT.

As for `CC(=O)Nc1cc(-c2[nH]c3c(Cl)ccnc3c2-c2cccc(F)n2)ccn1` [Example 64, N-{4-[7-Chloro-3-(6-fluoropyridin-2-yl)-1H-pyrrolo[3,2-b]pyridin-2-yl]pyridin-2-yl}acetamide], the results for the IC50 at HIS-TGFβR1 T204D (read-out: TGFβR1 (μM) IC50) and on HIS-TGFβR2 WT were 0.009 µM and 0.3 µM, respectively.

Consider `COc1cnc(-c2c(-c3ccnc(NC(C)=O)c3)[nH]c3cc(Cl)cnc23)s1` [Example 239, N-(4-(6-Chloro-3-(5-methoxythiazol-2-yl)-1H-pyrrolo[3,2-b]pyridin-2-yl)pyridin-2-yl)acetamide], for which the results for the IC50 at HIS-TGFβR1 T204D (read-out: TGFβR1 (μM) IC50) and on HIS-TGFβR2 WT were 0.0746 µM and 3.28 µM, respectively.

For `COC(=O)Nc1cc(-c2[nH]c3cc(Cl)cnc3c2-c2ccc(OC)cn2)ccn1` [Example 87, Methyl N-{4-[6-chloro-3-(5-methoxypyridin-2-yl)-1H-pyrrolo[3,2-b]pyridin-2-yl]pyridin-2-yl}carbamate], the half-inhibitory concentration (IC50) at HIS-TGFβR1 T204D (read-out: TGFβR1 (μM) IC50) is 0.002 µM; at HIS-TGFβR2 WT, > 15 µM.

For the molecule `CC(=O)Nc1cc(-c2[nH]c3cccnc3c2-c2ccc(F)c(C(F)F)n2)ccn1` [Example 193, N-(4-(3-(6-(Difluoromethyl)-5-fluoropyridin-2-yl)-1H-pyrrolo[3,2-b]pyridin-2-yl)pyridin-2-yl)acetamide], the half-maximal inhibitory concentration (IC50) on HIS-TGFβR1 T204D (read-out: TGFβR1 (μM) IC50) is 0.0006 µM; at HIS-TGFβR2 WT, > 15 µM.

For the molecule `CC(=O)Nc1cc(-c2[nH]c3ccc(F)nc3c2-c2cccc(Cl)n2)ccn1` [Example 34, N-{4-[3-(6-Chloropyridin-2-yl)-5-fluoro-1H-pyrrolo[3,2-b]pyridin-2-yl]pyridin-2-yl}acetamide], the IC50 worked out at 0.002 µM at HIS-TGFβR1 T204D (read-out: TGFβR1 (μM) IC50) and 0.13 µM at HIS-TGFβR2 WT.

Take `CC(=O)Nc1cc(-c2[nH]c3cccnc3c2-c2ncccn2)ccn1` [Example 8, N-{4-[3-(Pyrimidin-2-yl)-1H-pyrrolo[3,2-b]pyridin-2-yl]pyridin-2-yl}acetamide]: the IC50 worked out at 0.009 µM at HIS-TGFβR1 T204D (read-out: TGFβR1 (μM) IC50) and 2.03 µM at HIS-TGFβR2 WT.

`CC(=O)Nc1cc(-c2[nH]c3cc(Cl)cnc3c2-c2cccc(F)n2)ccn1` [Example 45, N-{4-[6-Chloro-3-(6-fluoropyridin-2-yl)-1H-pyrrolo[3,2-b]pyridin-2-yl]pyridin-2-yl}acetamide]: the values for the 50% inhibitory concentration (IC50) on HIS-TGFβR1 T204D (read-out: TGFβR1 (μM) IC50) and at HIS-TGFβR2 WT were 0.003 µM and 0.11 µM, respectively.

As for `CC(=O)Nc1cc(-c2[nH]c3c(C(C)C)ccnc3c2-c2cccc(C(F)F)n2)ccn1` [Example 133, N-(4-{3-[6-(Difluoromethyl)pyridin-2-yl]-7-(propan-2-yl)-1H-pyrrolo[3,2-b]pyridin-2-yl}pyridin-2-yl)acetamide], the concentration for half-maximal inhibition (IC50) is 0.001 µM at HIS-TGFβR1 T204D (read-out: TGFβR1 (μM) IC50) and > 15 µM at HIS-TGFβR2 WT.

Consider `COc1ccc(-c2c(-c3ccnc(NC(C)=O)c3)[nH]c3cc(Br)cnc23)nc1` [Example 83, N-{4-[6-Bromo-3-(5-methoxypyridin-2-yl)-1H-pyrrolo[3,2-b]pyridin-2-yl]pyridin-2-yl}acetamide], for which the IC50 on HIS-TGFβR1 T204D (read-out: TGFβR1 (μM) IC50) is 0.002 µM; at HIS-TGFβR2 WT, > 15 µM.

Take `CC(=O)Nc1cc(-c2[nH]c3cc(F)cnc3c2-c2csc(C)n2)ccn1` [Example 207, N-(4-(6-Fluoro-3-(2-methylthiazol-4-yl)-1H-pyrrolo[3,2-b]pyridin-2-yl)pyridin-2-yl)acetamide]: the IC50 at HIS-TGFβR2 WT was determined as 5.65 µM.

The molecule `CCc1ccnc2c(-c3cccc(C(F)F)n3)c(-c3ccnc(NC(C)=O)c3)[nH]c12` [Example 128, N-(4-{3-[6-(Difluoromethyl)pyridin-2-yl]-7-ethyl-1H-pyrrolo[3,2-b]pyridin-2-yl}pyridin-2-yl)acetamide] registered an IC50 on HIS-TGFβR2 WT of 5.26 µM.

On HIS-TGFβR2 WT, `COc1ccnc2c(-c3nc(C(F)F)cs3)c(-c3ccnc(NC(C)=O)c3)[nH]c12` [Example 270, N-(4-(3-(4-(Difluoromethyl)thiazol-2-yl)-7-methoxy-1H-pyrrolo[3,2-b]pyridin-2-yl)pyridin-2-yl)acetamide] registered an IC50 of 7.55 µM.

At HIS-TGFβR2 WT, `COCC(C)Oc1cnc2c(-c3cccc(C(F)F)n3)c(-c3ccnc(NC(C)=O)c3)[nH]c2c1` (stereo not drawn) [Example 103] displayed a half-inhibitory concentration (IC50) of 4.92 µM.

`CC(=O)Nc1cc(-c2[nH]c3cc(Cl)cnc3c2-c2csc(C)n2)ccn1` [Example 181, N-(4-(6-Chloro-3-(2-methylthiazol-4-yl)-1H-pyrrolo[3,2-b]pyridin-2-yl)pyridin-2-yl)acetamide] registered an IC50 at HIS-TGFβR2 WT of 1.07 µM.

Molecule `CC(=O)Nc1cc(-c2[nH]c3cc(OC(C)C)cnc3c2-c2cccc(C(F)F)n2)ccn1` [Example 102, N-(4-(3-(6-(Difluoromethyl)pyridin-2-yl)-6-isopropoxy-1H-pyrrolo[3,2-b]pyridin-2-yl)pyridin-2-yl)acetamide] showed an IC50 on HIS-TGFβR2 WT of 3.45 µM.

In the case of `[2H]C([2H])([2H])Oc1ccc(-c2c(-c3ccnc(NC(C)=O)c3)[nH]c3cc(F)cnc23)nc1` [Example 106, N-(4-(6-Fluoro-3-(5-(methoxy-d3)pyridin-2-yl)-1H-pyrrolo[3,2-b]pyridin-2-yl)pyridin-2-yl)acetamide], on HIS-TGFβR1 T204D (1 nM HIS-TGFβR1 T204D, labeled probe at Kd, 1 hour room temperature, eleven concentrations, read-out: TGFβR1 (μM) IC50), the IC50 is 0.003 µM.

On HIS-TGFβR2 WT, `[2H]C([2H])([2H])Oc1cnc2c(-c3cccc(C(F)F)n3)c(-c3ccnc(NC(C)=O)c3)[nH]c2c1` [Example 100, N-(4-(3-(6-(Difluoromethyl)pyridin-2-yl)-6-(methoxy-d3)-1H-pyrrolo[3,2-b]pyridin-2-yl)pyridin-2-yl)acetamide] yielded an IC50 of 2.62 µM.

Regarding `CCOc1cnc2c(-c3cccc(C(F)F)n3)c(-c3ccnc(NC(C)=O)c3)[nH]c2c1` [Example 101, N-(4-(3-(6-(Difluoromethyl)pyridin-2-yl)-6-ethoxy-1H-pyrrolo[3,2-b]pyridin-2-yl)pyridin-2-yl)acetamide], the IC50 at HIS-TGFβR2 WT turned out to be 4.29 µM.

Consider `CC(=O)Nc1cc(-c2[nH]c3cc(OC4COC4)cnc3c2-c2cccc(C(F)F)n2)ccn1` [Example 99, N-(4-(3-(6-(Difluoromethyl)pyridin-2-yl)-6-(oxetan-3-yloxy)-1H-pyrrolo[3,2-b]pyridin-2-yl)pyridin-2-yl)acetamide], for which the IC50 on HIS-TGFβR2 WT was 2.75 µM.

In the case of `COc1ccnc2c(-c3cccc(F)n3)c(-c3ccnc(NC(C)=O)c3)[nH]c12` [Example 273, N-(4-(3-(6-Fluoropyridin-2-yl)-7-methoxy-1H-pyrrolo[3,2-b]pyridin-2-yl)pyridin-2-yl)acetamide], the IC50 on HIS-TGFβR2 WT stood at 1.36 µM.

As for `COc1cnc2c(-c3csc(C#N)n3)c(-c3ccnc(NC(C)=O)c3)[nH]c2c1` [Example 228, N-(4-(3-(2-Cyanothiazol-4-yl)-6-methoxy-1H-pyrrolo[3,2-b]pyridin-2-yl)pyridin-2-yl)acetamide], the IC50 on HIS-TGFβR2 WT stood at 4.24 µM.
